molecular target: T1, thrombin receptor (Homo sapiens, UniProt P25116); experiment: High throughput thrombin receptor radioligand binding assay ([3H]haTRAP, platelet membranes); conditions: [3H]haTRAP binding to platelet membranes
T1 construct: tissue North Jersey Blood Center (East Orange, N.J.); host or cells: platelet membranes prepared from platelet concentrates
T1 sequence (P25116 22-425): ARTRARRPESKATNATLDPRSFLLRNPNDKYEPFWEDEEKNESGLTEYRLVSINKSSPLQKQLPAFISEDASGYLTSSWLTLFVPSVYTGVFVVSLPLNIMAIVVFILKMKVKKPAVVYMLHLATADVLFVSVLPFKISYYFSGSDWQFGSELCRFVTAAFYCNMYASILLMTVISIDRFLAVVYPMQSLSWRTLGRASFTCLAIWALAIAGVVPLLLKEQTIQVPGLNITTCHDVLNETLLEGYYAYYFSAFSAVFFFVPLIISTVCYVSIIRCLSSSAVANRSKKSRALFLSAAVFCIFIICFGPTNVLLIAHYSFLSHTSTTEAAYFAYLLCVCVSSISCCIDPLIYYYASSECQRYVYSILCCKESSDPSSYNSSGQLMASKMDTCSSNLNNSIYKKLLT
Procedure: A(pF-F)R(ChA)(hR)(I2—Y)—NH2 (1.03 mg) and 10% Pd/C (5.07 mg) were suspended in DMF (250 μl) and diisopropylethylamine (10 μl). The vessel was attached to the tritium line, frozen in liquid nitrogen and evacuated. Tritium gas (342 mCi) was then added to the flask, which was stirred at room temperature for 2 hours. At the completion of the reaction, the excess tritium was removed and the reacted peptide solution was diluted with DMF (0.5 ml) and filtered to remove the catalyst. The collected DMF solution of the crude peptide was diluted with water and freeze dried to remove the labile tritium. The solid peptide was redissolved in water and the freeze drying process repeated. The tritiated peptide ([^3H]haTRAP) was dissolved in 0.5 ml of 0.1% aqueous TFA and purified by HPLC using the following conditions: column, Vydac™ C18, 25 cm×9.4 mm I.D.; mobile phase, (A) 0.1% TFA in water, (B) 0.1% TFA in CH3CN; gradient, (A/B) from 100/0 to 40/60 over 30 min; flow rate, 5 ml/min; detection, UV at 215 nm. The radiochemical purity of [^3H]haTRAP was 99% as analyzed by HPLC. A batch of 14.9 mCi at a specific activity of 18.4 Ci/mmol was obtained.
Platelet membranes were prepared using a modification of the method of Natarajan et al. (Natarajan et al, Int. J. Peptide Protein Res. 45:145-151 (1995)) from 20 units of platelet concentrates obtained from the North Jersey Blood Center (East Orange, N.J.) within 48 hours of collection. All steps were carried out at 4° C. under approved biohazard safety conditions. Platelets were centrifuged at 100×g for 20 minutes at 4° C. to remove red cells. The supernatants were decanted and centrifuged at 3000×g for 15 minutes to pellet platelets. Platelets were re-suspended in 10 mM Tris-HCl, pH 7.5, 150 mM NaCl, 5 mM EDTA, to a total volume of 200 ml and centrifuged at 4400×g for 10 minutes. This step was repeated two additional times. Platelets were re-suspended in 5 mM Tris-HCl, pH 7.5, 5 mM EDITA to a final volume of approximately 30 ml and were homogenized with 20 strokes in a Dounce™ homogenizer. Membranes were pelleted at 41,000×g, re-suspended in 40-50 ml 20 mM Tris-HCl, pH 7.5, 1 mM EDTA, 0.1 mM dithiothreitol, and 10 ml aliquots were frozen in liquid N2 and stored at −80° C. To complete membrane preparation, aliquots were thawed, pooled, and homogenized with 5 strokes of a Dounce homogenizer. Membranes were pelleted and washed 3 times in 10 mM triethanolamine-HCl, pH 7.4, 5 mM EDTA, and re-suspended in 20-25 ml 50 mM Tris-HCl, pH 7.5, 10 mM MgCl2, 1 mM EGTA, and 1% DMSO. Aliquots of membranes were frozen in liquid N2 and stored at −80° C. Membranes were stable for at least 3 months. 20 units of platelet concentrates typically yielded 250 mg of membrane protein. Protein concentration was determined by a Lowry assay (Lowry et al., J. Biol. Chem., 193:265-275 (1951)).
Thrombin receptor antagonists were screened using a modification of the thrombin receptor radioligand binding assay of Ahn et al. (Ahn et al., Mol. Pharmacol, 51:350-356 (1997)). The assay was performed in 96 well Nunc plates (Cat. No. 269620) at a final assay volume of 200 μl. Platelet membranes and [^3H]haTRAP were diluted to 0.4 mg/ml and 22.2 nM, respectively, in binding buffer (50 mM Tris-HCl, pH 7.5, 10 mM MgCl2, 1 mM EGTA, 0.1% BSA). Stock solutions (10 mM in 100% DMSO) of test compounds were further diluted in 100% DMSO. Unless otherwise indicated, 10 μl of diluted compound solutions and 90 μl of radioligand (a final concentration of 10 nM in 5% DMSO) were added to each well, and the reaction was started by the addition of 100 μl of membranes (40 μg protein/well). […] Compounds were tested at three concentrations (0.1, 1 and 10 μM). The plates were covered and vortex-mixed gently on a Lab-Line™ Titer Plate Shaker for 1 hour at room temperature. Packard UniFilter™ GF/C filter plates were soaked for at least 1 hour in 0.1% polyethyleneimine. […]

Row | Compound | IC50 [nM] | Ki [nM]
1 | O=C1C[C@H]2[C@@H]3CCCC[C@H]3[C@H](/C=C/c3ccc(-c4cc(Cl)ccc4Cl)cn3)C[C@H]2O1 [Compound 4] | 20 | 13
2 | C[C@@H]1[C@@H](C)[C@H](/C=C/c2ccc(-c3ccccc3C#N)cn2)C[C@H]2OC(=O)C[C@@H]12 [Compound 2] | 16 | 11
3 | O=C1C[C@H]2[C@@H]3CCCC[C@H]3[C@H](/C=C/c3ccc(-c4cccc(F)c4)cn3)C[C@H]2O1 [Compound 3] | 4.8 | 3.1
4 | C[C@@H]1[C@@H](C)[C@H](/C=C/c2ccc(-c3ccccc3C#N)cn2)C[C@@H]2OC(=O)C[C@@H]12 [Compound 1] | 45 | –
5 | N#Cc1cccc(-c2ccc(/C=C/[C@@H]3C[C@H]4OC(=O)C[C@H]4[C@@H]4CCCC[C@H]43)nc2)c1 [Compound 5] | 6.7 | 4.3
